Laboratory results from patent EP0392802A2, “Preparation of urea analogues and their use in bronchial, cerebrovascular and neuronal disorders” (Beecham Group p.l.c., priority 1989, dated 1990).

System: guinea pig tracheal spiral preparations
Assay: Bronchodilation in vitro; guinea pig tracheal spiral preparations (relaxation of resting tension relative to isoprenaline)
Settings: fall in tension as percentage of total relaxation evoked by 10⁻³M isoprenaline; cumulative dosing 10⁻⁸-2x10⁻⁵M; resting tension 2g; krebs solution at 37°C; read-out: IC₅₀
Protocol: Male guinea pigs (300-600g) were stunned by a blow to the head and bled from the carotid artery. The trachea was exposed, dissected free of connective tissue, and transferred to oxygenated krebs solution at 37 °C. Next, spirals (2 per trachea) were prepared by cutting the whole trachea spirally along its longitudinal axis and then dividing this spiral lengthwise. Each preparation was mounted, using silk thread, in a 10ml organ bath filled with krebs solution at 37 °C and bubbled with 5% CO₂ with O₂. The resting tension of the preparations was set at 2g and changes in muscle tension were monitored isometrically by means of a UFI (2oz) force and displacement transducer (Ormed Ltd) connected to a Linseis pen recorder. All preparations were allowed to equilibrate for 60 minutes. During this equilibration period the preparations were washed by upward displacement at 15 minute intervals and, if necessary, the resting tension was readjusted to 2g using a mechanical micromanipulator system.
Once a steady resting tension had been obtained, the preparations were dosed cumulatively with the test compound (10⁻⁸-2x10⁻⁵M), and finally a maximum relaxation achieved by addition of 10⁻³M isoprenaline.
The fall in tension evoked by the test compound was expressed as a percentage of the total relaxation evoked in the presence of 10⁻³M isoprenaline. […]

SMILES	IC50 [µM]
CC(NC(=S)Nc1ccc(F)cc1)C(C)(C)C (racemic) [Example 3, (±)-N-4-Fluorophenyl-N′-1,2,2-trimethylprop-1-ylthiourea]	5.9
CC(NC(=NC#N)Nc1ccc(C#N)cc1)C(C)(C)C (racemic) [Example 4, (±)-N˝-Cyano-N-4-cyanophenyl-N′-1,2,2-trimethylprop-1-ylquanidine]	3
